What was measured:
[1] = biological target: T1, Lysosomal acid glucosylceramidase (Homo sapiens) (UniProt P04062); experiment: Increase in non-lysosomal activity of glucocerebrosidase N370S mutant in human L444P cells at 30 uM relative to Conduritol B epoxide; assay type: cell-based
T1 sequence (whole entry): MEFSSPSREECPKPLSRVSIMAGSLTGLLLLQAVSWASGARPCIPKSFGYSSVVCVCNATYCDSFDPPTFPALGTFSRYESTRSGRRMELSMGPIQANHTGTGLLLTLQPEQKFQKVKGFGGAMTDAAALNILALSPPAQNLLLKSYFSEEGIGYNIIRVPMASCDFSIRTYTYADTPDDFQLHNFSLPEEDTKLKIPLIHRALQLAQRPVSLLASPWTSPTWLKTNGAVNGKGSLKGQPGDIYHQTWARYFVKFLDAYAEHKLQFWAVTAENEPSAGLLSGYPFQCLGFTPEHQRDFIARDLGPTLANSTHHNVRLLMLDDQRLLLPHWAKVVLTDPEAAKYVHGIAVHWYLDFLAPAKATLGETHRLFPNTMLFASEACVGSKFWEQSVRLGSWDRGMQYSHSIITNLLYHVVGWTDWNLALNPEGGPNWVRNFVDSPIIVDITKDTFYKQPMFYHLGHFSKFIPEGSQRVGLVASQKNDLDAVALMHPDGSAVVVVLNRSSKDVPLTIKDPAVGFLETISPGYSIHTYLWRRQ

[2] = biological target: T2, Lysosomal acid glucosylceramidase (Homo sapiens, UniProt P04062); experiment: Inhibition of glucocerebrosidase
T2 sequence (P04062 whole entry): T1 sequence (whole entry)

L444P [3] = experiment: Increase in non-lysosomal activity of glucocerebrosidase […] mutant in human L444P cells at 20 uM relative to Conduritol B epoxide; assay type: cell-based
[4] = biological target: T1, Lysosomal acid glucosylceramidase (Homo sapiens); experiment: Increase in non-lysosomal activity of glucocerebrosidase N370S mutant in human L444P cells at 20 uM relative to Conduritol B epoxide; assay type: cell-based
L444P [5] = experiment: Increase in non-lysosomal activity of glucocerebrosidase […] mutant in human L444P cells at 50 uM relative to Conduritol B epoxide; assay type: cell-based
[6] = biological target: T1, Lysosomal acid glucosylceramidase (Homo sapiens); experiment: Increase in non-lysosomal activity of glucocerebrosidase N370S mutant in human L444P cells at 75 uM relative to Conduritol B epoxide; assay type: cell-based
L444P [7] = experiment: Increase in non-lysosomal activity of glucocerebrosidase […] mutant in human L444P cells at 150 uM relative to Conduritol B epoxide; assay type: cell-based
[8] = biological target: T1, Lysosomal acid glucosylceramidase (Homo sapiens); experiment: Increase in non-lysosomal activity of glucocerebrosidase N370S mutant in human L444P cells at 50 uM relative to Conduritol B epoxide; assay type: cell-based

| Compound | Activity [1] | IC50 [2] [µM] | Activity (L444P [3]) | Activity [4] | Activity (L444P [5]) | Activity [6] | Activity (L444P [7]) | Activity [8] |
| --- | --- | --- | --- | --- | --- | --- | --- | --- |
| O=C(CCCN1[C@H](CO)[C@@H](O)[C@H](O)[C@@H]1CO)NC12CC3CC(CC(C3)C1)C2 | 2.2 | 507 | 1.6 |  |  |  |  |  |
| O=C(CCCCN1[C@H](CO)[C@@H](O)[C@H](O)[C@@H]1CO)NC12CC3CC(CC(C3)C1)C2 |  | 393 |  | 1.4 | 2.2 |  |  |  |
| O=C(CCCN1C[C@H](CO)[C@@H](O)[C@H](O)C1)NC12CC3CC(CC(C3)C1)C2 |  | 18 |  |  |  | 2.5 | 7 |  |
| O=C(CCCCN1C[C@H](CO)[C@@H](O)[C@H](O)C1)NC12CC3CC(CC(C3)C1)C2 |  | 11 |  |  |  |  | 7.2 | 1.9 |
| O=C(CCCCCN1C[C@H](CO)[C@@H](O)[C@H](O)C1)NC12CC3CC(CC(C3)C1)C2 |  | 94 |  |  |  | 2.3 | 5.1 |  |

Source: ChEMBL document CHEMBL1139223, “Isofagomine- and 2,5-anhydro-2,5-imino-D-glucitol-based glucocerebrosidase pharmacological chaperones for Gaucher disease intervention” (J Med Chem, 2007)
